Literature values as cited in PMC7887855 (ACS Pharmacology & Translational Science, 2020).

System: Mtb
Conditions: multiple daily IP injections, mice

C=Cc1c2[n-]c(c1C)/C=c1\[n-]/c(c(C)c1C=C)=C\c1[n-]c(c(CCC(=O)O)c1C)C=c1[n-]/c(c(C)c1CCC(=O)O)=C\2.[Sn+4] [SnPPIX, tin protoporphyrin IX]
effect on mycobacterial load as monotherapy: significantly decrease mycobacterial load | effect on treatment time in combination with conventional TB antibiotics: reduced treatment time by over one month
